Reference: patent US10533164B2, “Mutant sialidase having trans-sialidase activity for use in production of sialylated glycans” (priority 2013, dated 2020)
Changes are numbered by the printed parent chain. Names and notes keep the numbering of the source.

Assays:
[1] = system: Lactobacillus acidophilus (NCFM, ATCC 700396); assay: Bacterial growth on sialylated glycans; format: cell-based; details: L. acidophilus; substrate 10 g/L in MRS-medium; average of 3 replicates
[2] = system: Bifidobacterium longum infantis (DGCC 2238); assay: Bacterial growth on sialylated glycans; format: cell-based; details: B. infantis 2238; substrate 10 g/L in MRS-medium; average of 3 replicates
[3] = system: Bifidobacterium longum (BI-05, DGCC 9917); assay: Bacterial growth on sialylated glycans; format: cell-based; details: B. longum 9917; substrate 10 g/L in MRS-medium; average of 3 replicates
[4] = system: Bifidobacterium longum longum (DGCC 232); assay: Bacterial growth on sialylated glycans; format: cell-based; details: B. longum 232; for Area under the growth curve: substrate 10 g/L in MRS-medium, average of 3 replicates
[5] = system: group of probiotic strains; assay: Bacterial growth on sialylated glycans, probiotic strains as a group; format: cell-based
[6] = system: Bifidobacterium longum infantis (DGCC 233); assay: Bacterial growth on sialylated glycans; format: cell-based; details: B. infantis 233; for Area under the growth curve: substrate 10 g/L in MRS-medium, average of 3 replicates
[7] = system: Bifidobacterium longum infantis (DGCC 1497); assay: Bacterial growth on sialylated glycans; format: cell-based; details: B. infantis 1497; for Area under the growth curve: substrate 10 g/L in MRS-medium, average of 3 replicates
[8] = system: Bifidobacterium lactis (HN019, DGCC2013); assay: Bacterial growth on sialylated glycans; format: cell-based; details: B. lactis; substrate 10 g/L in MRS-medium; average of 3 replicates
[9] = system: Clostridium perfringens (ATCC 13124); format: cell-based; details: C. perfringens; substrate 10 g/L in MRS-medium; average of 3 replicates
[10] = Trans-sialidase activity assay (fluorescence-based); format: biochemical; details: for trans-sialidase activity relative to Tr6 parent (product formation, FIG. 4): mutants from shake flask cultures, cGMP donor, MU-Gal acceptor
Experimental: The invention provides a method for assaying the mutant trans-sialidase of the invention, that may for example be obtained by recombinant expression. Example 2.1 describes a fluorescence-based assay employing cGMP-bound sialic acid (for example 1 mM) as donor substrate and methylumbelliferyl-β-D-galactopyranoside (MU-Gal) as the acceptor (for example 0.5 mM), where the reaction is performed in a 50 mM phosphate-citrate (pH 6) at 30° C.
Trans-sialidase activity was assayed as described previously but with the following modifications. Reactions were performed in 50 mM phosphate-citrate (pH 6) at 30° C. using 2.9 μg/mL enzyme. The assay employed 1 mM cGMP-bound sialic acid as donor substrate and MU-Gal as the acceptor. MU-Gal at 0.5 mM was the highest final concentration to be tested due to its low solubility in aqueous solution. A solution of 87 mM MU-Gal in DMSO was diluted to 2 mM in 50 mM phosphate-citrate buffer (pH 6) immediately before preparing the reactions. When assaying crude enzyme preparations from P. pastoris, a background signal was observed, and attributed to cleavage of MU-Gal by endogenous β-galactosidase. This background signal could be removed by washing the column eight times with 440 μL of 5 mM HCl after sample application without desorption of the sialylated product and this was therefore done routinely.
To assess the performance of the mutant enzymes, they were produced by recombinant expression in P. pastoris, transformed with the respective mutant gene, by growth in shake flask cultures. The trans-sialidase activity of the expressed mutant enzymes was measured with a fluorescence-based assay using cGMP as sialic acid donor and methylumbelliferyl-β-D-galactopyranoside (MU-Gal) as acceptor (FIG. 4). As the detected product is a measure of both the trans-sialidase activity (product formation) and hydrolase activity (product degradation) the assay provides an effective screen for mutants having a higher trans-sialidase to hydrolase activity ratio.

[11] = Sialidase (hydrolase) activity assay; format: biochemical; details: substrate pNP-Neu5Ac; compared with Tr6
Experimental: Sialidase activity was measured in a reaction containing 50 mM phosphate-citrate buffer (pH 7), 0.75 mM pNP-NeuAc and 3 μg/mL sialidase enzyme. Reactions were initiated by addition of substrate and followed spectrophotometrically at 410 nm at 30° C. pH 7 was chosen to enable detection of released pNP in a continuous assay. Reaction rates were normalized as % of the activity of the Tr6 parent enzyme. For measurement of hydrolysis of natural substrates, the assay was performed with either 1 mM 3′-sialyllactose, 1 mM 6′-sialyllactose or 1 mM cGMP-bound sialic acid in 50 mM phosphate-citrate buffer (pH 5) using 1 μg/mL enzyme. Reactions were started by addition of enzyme and stopped by adding H2SO4 to 45 mM final concentration. Quantification of free sialic acid was performed using a 2-thiobarbituric acid assay with the modification that butanol extraction was substituted with mixing with dimethyl sulfoxide (DMSO).

CC(=O)NC1C(O)CC(OC2C(O)C(CO)OC(OCC3OC(O)C(O)C(O)C3O)C2O)(C(=O)O)OC1C(O)C(O)CO (stereo not drawn) [S-melibiose, SA-α-Gal-1,6-α-Glc]
Area under the growth curve [1]: 192 ± 4 OD600 × min
Area under the growth curve [2]: 302 ± 2 OD600 × min
Area under the growth curve [3]: 70 ± 8 OD600 × min
Area under the growth curve [4]: 104 ± 17 OD600 × min
growth promotion (in words) [5]: did not appear to promote growth
Area under the growth curve [6]: 14 ± 6 OD600 × min

SA-α-Fuc [S-fucose]
Area under the growth curve [1]: 188 ± 18 OD600 × min
Area under the growth curve [2]: 285 ± 15 OD600 × min
Area under the growth curve [3]: 114 ± 15 OD600 × min
growth promotion (in words) [7]: promoted growth
Area under the growth curve [7]: 149 ± 2 OD600 × min
Area under the growth curve [8]: 192 ± 27 OD600 × min
Area under the growth curve [9]: 811 ± 48 OD600 × min
growth promotion (in words) [4]: promoted growth
Area under the growth curve [4]: 192 ± 20 OD600 × min
growth promotion (in words) [6]: promoted growth
Area under the growth curve [6]: 71 ± 6 OD600 × min

SA-α-Gal-1,4-β-Fru [S-lactulose]
Area under the growth curve [1]: 128 ± 2 OD600 × min
Area under the growth curve [2]: 269 ± 20 OD600 × min
Area under the growth curve [3]: 34 ± 14 OD600 × min
Area under the growth curve [7]: 34 ± 2 OD600 × min
Area under the growth curve [8]: 122 ± 18 OD600 × min
Area under the growth curve [9]: 541 ± 17 OD600 × min
Area under the growth curve [4]: 134 ± 19 OD600 × min
Area under the growth curve [6]: 109 ± 20 OD600 × min

SA-α-Glc-1,4-α-Glc [S-maltose]
Area under the growth curve [1]: 193 ± 12 OD600 × min
Area under the growth curve [2]: 158 ± 24 OD600 × min
Area under the growth curve [3]: 101 ± 6 OD600 × min
Area under the growth curve [8]: 102 ± 8 OD600 × min
Area under the growth curve [9]: 844 ± 99 OD600 × min
Area under the growth curve [4]: 122 ± 31 OD600 × min
growth promotion (in words) [5]: did not appear to promote growth
Area under the growth curve [6]: 30 ± 4 OD600 × min

B1: Tr6 P98A: Tr6 mutant, reversion of mutation P98A (protein)
chain: LAPGSSRVELFKRKNSTVPFEESNGTIRERVVHSFRLPTIVNVDGVMVAIADARYETSFDNSFIETAVKYSVDDGATWNTQIAIKNSRASSVSRVVDATVIVKGNKLYILVGSFNKTRNYWTQHRDGSDWEPLLVVGEVTKSAANGKTTATISWGKPVSLKPLFPAEFDGILTKEFVGGVGAAIVASNGNLVYPVQIADMGGRVFTKIMYSEDDGNTWKFAEGRSKFGCSEPAVLEWEGKLIINNRVDYNRRLVYESSDMGKTWVEALGTLSHVWTNSPTSNQPDCQSSFVAVTIEGKRVMLFTHPLNLKGRWMRDRLHLWMTDNQRIFDVGQISIGDENSGYSSVLYKDDKLYSLHEINTNDVYSLVFVRLIGELQLMKSVVRTWKEEDNHLASICTPVVPATPPSKGACGAAVPTAGLVGFLSHSANGSVWEDVYRCVDANVANAERVPNGLKFNGVGGGAVWPVARQGQTRRYQFANYRFTLVATVTIDELPKGTSPLLGAGLEGPGDAKLLGLSYDKNRQWRPLYGAAPASPTGSWELHKKYHVVLTMADRQGSVYVDGQPLAGSGNTVVRGATLPDISHFYIGGPRSKGAPTDSRVTVTNVVLYNRRLNSSEIRTLFLSQDMIGTDGGAGTAA
trans-sialidase activity relative to Tr6 parent (product formation, FIG. 4) [10]: reduction in trans-sialidase activity

B2: Tr6 Y249G: Tr6 mutant, reversion of mutation Y249G (protein)
chain: B1 chain with A98P, Y249G
trans-sialidase activity relative to Tr6 parent (product formation, FIG. 4) [10]: reduction in trans-sialidase activity

B3: Tr6 D363E: Tr6 sialidase mutant with amino acid change D363E (protein)
chain: B1 chain with A98P, D363E
hydrolase activity (FIG. 5A) [11]: reduced hydrolase activity
trans-sialidase activity relative to Tr6 parent (product formation, FIG. 4) [10]: enhanced trans-sialidase activity
trans-sialylated product yield (maximum product formation, FIG. 5B) ([10]; purified enzyme from 5 L fermentor, time course, compared with Tr6): similarly low product formation profile as Tr6
